Data taken from ChEMBL document CHEMBL2074045, “Up-regulation of P-glycoprotein expression in rat liver cells by acute doxorubicin treatment” (Eur J Biochem, 1997).

Columns and labels:
[1] = molecular target: Multidrug resistance protein 1a (Rattus norvegicus) (UniProt Q6PSM0); assay: TP_TRANSPORTER: Western in vitro, nonparenchymal ral liver epithelial cells; format: functional, tissue-based; details: Epithelial cell
[2] = molecular target: ATP-dependent translocase ABCB1 (Rattus norvegicus, UniProt P43245); assay: TP_TRANSPORTER: Northern blot in vitro, nonparenchymal ral liver epithelial cells; format: functional; details: epithelial cell
Sequence of ATP-dependent translocase ABCB1 (P43245 whole entry): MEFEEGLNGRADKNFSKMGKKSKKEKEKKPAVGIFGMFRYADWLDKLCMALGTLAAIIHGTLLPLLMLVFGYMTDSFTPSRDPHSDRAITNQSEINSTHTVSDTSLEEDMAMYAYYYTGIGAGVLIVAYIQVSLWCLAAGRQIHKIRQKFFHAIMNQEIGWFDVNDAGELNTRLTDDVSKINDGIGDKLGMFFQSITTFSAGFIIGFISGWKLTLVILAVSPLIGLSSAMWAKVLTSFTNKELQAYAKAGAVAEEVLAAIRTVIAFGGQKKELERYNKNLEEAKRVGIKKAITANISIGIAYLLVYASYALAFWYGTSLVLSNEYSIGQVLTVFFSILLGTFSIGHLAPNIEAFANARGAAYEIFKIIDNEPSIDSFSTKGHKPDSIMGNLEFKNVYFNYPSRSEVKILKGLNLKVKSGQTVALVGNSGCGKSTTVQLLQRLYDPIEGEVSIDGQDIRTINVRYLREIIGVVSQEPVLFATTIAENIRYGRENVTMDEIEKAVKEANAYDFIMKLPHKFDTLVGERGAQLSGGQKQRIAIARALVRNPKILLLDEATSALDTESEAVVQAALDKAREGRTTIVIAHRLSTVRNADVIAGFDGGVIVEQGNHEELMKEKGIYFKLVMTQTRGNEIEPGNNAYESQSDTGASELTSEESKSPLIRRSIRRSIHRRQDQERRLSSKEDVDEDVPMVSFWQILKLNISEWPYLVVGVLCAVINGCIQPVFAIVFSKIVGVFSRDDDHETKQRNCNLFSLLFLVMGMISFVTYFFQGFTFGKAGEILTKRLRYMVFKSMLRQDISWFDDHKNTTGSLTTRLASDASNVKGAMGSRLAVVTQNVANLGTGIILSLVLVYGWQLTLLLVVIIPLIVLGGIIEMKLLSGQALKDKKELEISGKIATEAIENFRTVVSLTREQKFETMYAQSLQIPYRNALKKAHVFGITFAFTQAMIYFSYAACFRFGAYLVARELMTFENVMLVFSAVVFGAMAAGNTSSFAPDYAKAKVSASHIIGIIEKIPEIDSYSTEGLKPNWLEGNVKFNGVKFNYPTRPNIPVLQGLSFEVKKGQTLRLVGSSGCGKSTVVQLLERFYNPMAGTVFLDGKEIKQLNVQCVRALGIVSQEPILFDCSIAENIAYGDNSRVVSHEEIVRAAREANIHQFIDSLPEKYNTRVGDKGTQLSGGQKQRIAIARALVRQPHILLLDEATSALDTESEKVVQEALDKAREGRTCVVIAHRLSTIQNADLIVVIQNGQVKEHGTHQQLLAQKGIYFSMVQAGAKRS

Sequence of Multidrug resistance protein 1a (Rattus norvegicus) (Q6PSM0 as listed by the source): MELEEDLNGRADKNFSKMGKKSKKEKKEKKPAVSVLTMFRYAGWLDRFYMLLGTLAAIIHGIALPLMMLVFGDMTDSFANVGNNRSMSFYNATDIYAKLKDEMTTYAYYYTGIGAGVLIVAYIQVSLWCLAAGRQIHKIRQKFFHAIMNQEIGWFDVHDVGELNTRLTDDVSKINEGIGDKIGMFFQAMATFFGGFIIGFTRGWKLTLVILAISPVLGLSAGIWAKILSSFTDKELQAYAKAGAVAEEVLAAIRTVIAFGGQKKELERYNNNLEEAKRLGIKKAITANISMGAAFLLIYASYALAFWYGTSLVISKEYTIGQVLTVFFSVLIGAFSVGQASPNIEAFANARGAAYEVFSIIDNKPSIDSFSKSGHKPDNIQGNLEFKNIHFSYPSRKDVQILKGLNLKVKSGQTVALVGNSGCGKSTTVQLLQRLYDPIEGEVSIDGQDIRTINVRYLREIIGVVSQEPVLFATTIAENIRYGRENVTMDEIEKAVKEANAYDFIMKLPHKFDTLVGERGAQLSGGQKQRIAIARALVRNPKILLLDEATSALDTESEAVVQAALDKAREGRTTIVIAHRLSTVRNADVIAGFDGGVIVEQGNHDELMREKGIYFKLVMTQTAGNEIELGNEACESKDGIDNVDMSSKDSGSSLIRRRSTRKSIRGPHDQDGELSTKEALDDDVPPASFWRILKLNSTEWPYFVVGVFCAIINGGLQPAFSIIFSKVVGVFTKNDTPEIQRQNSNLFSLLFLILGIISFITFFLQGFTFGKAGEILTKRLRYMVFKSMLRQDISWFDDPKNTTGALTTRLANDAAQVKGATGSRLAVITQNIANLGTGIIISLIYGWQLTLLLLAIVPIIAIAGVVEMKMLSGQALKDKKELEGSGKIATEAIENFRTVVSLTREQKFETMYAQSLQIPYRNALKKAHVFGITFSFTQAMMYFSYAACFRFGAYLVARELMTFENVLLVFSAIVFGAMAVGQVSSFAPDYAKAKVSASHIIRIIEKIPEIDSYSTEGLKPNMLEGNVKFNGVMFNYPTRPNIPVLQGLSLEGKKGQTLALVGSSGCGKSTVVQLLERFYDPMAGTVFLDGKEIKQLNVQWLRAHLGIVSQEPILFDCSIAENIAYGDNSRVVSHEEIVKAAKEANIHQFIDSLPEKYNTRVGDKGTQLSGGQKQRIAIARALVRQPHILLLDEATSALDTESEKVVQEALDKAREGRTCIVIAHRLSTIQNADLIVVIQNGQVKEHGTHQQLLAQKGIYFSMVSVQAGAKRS

Activity [1]: inducer [+]
Activity [2]: inducer [+]
Structure (SMILES): COc1cccc2c1C(=O)c1c(O)c3c(c(O)c1C2=O)C[C@@](O)(C(=O)CO)C[C@@H]3O[C@H]1C[C@H](N)[C@H](O)[C@H](C)O1 [DOXORUBICIN]
